Active and inactive are the calls of the source. The rule behind the calls is not given here.
Legend:
CHO [1] = experiment: Antagonist activity at chinese hamster A2A receptor expressed in CHO cells assessed as CGS 21 680 induced response at 10 nM and measured for 30 mins by dynamic mass redistribution by DMR assay; type: cell-based; conditions: Cricetulus griseus, filed as antagonist
HEK293T = experiment: Stabilization of A2A/D2 receptor heterodimerization in human HEK-293T cells cotransfected with A2AR-Rluc and D2R-YFP at 100 nM assessed as increase in heteromer stabilization by measuring yellow fluorescent protein level by BRET assay relative to control; type: cell-based
Ovis aries [2] = species on record: Ovis aries; experiment: Displacement of [3H]YM-09151-2 from dopamine D2 receptor from sheep brain striatum membrane assessed as first protomer region in unoccupied dimer incubated for 2 hrs by radioligand based competition binding assay; type: cell membranes
CHO [3] = experiment: Antagonist activity at chinese hamster D2 receptor expressed in CHO cells assessed as su-manirole induced response at 0.1 nM and measured for 30 mins by dynamic mass redistribution by DMR assay relative to control; type: cell-based; conditions: Cricetulus griseus, filed as antagonist
Ovis aries [4] = species on record: Ovis aries; experiment: Displacement of [3H]- ZM 241 385 from A2A receptor from sheep brain striatum membrane assessed as first protomer region in the unoccupied dimer incubated for 2 hrs by radioligand based competition binding assay; type: cell membranes
Ovis aries [5] = species on record: Ovis aries; experiment: Displacement of [3H]- ZM 241 385 from A2A receptor from sheep brain striatum membrane assessed as first protomer region in the unoccupied dimer in presence of TM5-TAT peptide by radioligand based competition binding assay; type: cell membranes
Ovis aries [6] = species on record: Ovis aries; experiment: Displacement of [3H]- ZM 241 385 from A2A receptor from sheep brain striatum membrane assessed as first protomer region in the unoccupied dimer in presence of TM3-TAT peptide by radioligand based competition binding assay; type: cell membranes

K (Ovis aries [2]) | SMILES | Activity (CHO [1]) | Activity (HEK293T) | Activity (CHO [3]) | further results
 | Nc1nc2c(cnn2CCCc2ccc(OCC(=O)O)cc2)c2nc(-c3ccco3)nn12 | Antagonist |  |  | 
 | COC(=O)CN(CC(=O)NCCOCCOCCNC(=O)CCC(=O)Nc1ccc(CCN2CN(c3ccccc3)C3(CCN(CCCC(=O)c4ccc(F)cc4)CC3)C2=O)cc1)CC(=O)NCCOCCOCCNC(=O)COc1ccc(CCCn2ncc3c2nc(N)n2nc(-c4ccco4)nc32)cc1 |  | Active |  | 
0.5 nM | COC(=O)CN(CC(=O)NCCOCCOCCOCCOCCOCCNC(C)=O)CC(=O)NCCOCCOCCOCCOCCOCCNC(=O)CCC(=O)Nc1ccc(CCN2CN(c3ccccc3)C3(CCN(CCCC(=O)c4ccc(F)cc4)CC3)C2=O)cc1 |  |  |  | 
 | COC(=O)CN(CC(=O)NCCCOCCOCCOCCCNC(=O)CCC(=O)Nc1ccc(CCN2CN(c3ccccc3)C3(CCN(CCCC(=O)c4ccc(F)cc4)CC3)C2=O)cc1)CC(=O)NCCCOCCOCCOCCCNC(=O)COc1ccc(CCCn2ncc3c2nc(N)n2nc(-c4ccco4)nc32)cc1 | Antagonist | Active | Antagonist | 
0.13 nM | COC(=O)CN(CC(=O)NCCOCCOCCOCCOCCOCCNC(=O)CCC(=O)Nc1ccc(CCN2CN(c3ccccc3)C3(CCN(CCCC(=O)c4ccc(F)cc4)CC3)C2=O)cc1)CC(=O)NCCOCCOCCOCCOCCOCCNC(=O)COc1ccc(CCCn2ncc3c2nc(N)n2nc(-c4ccco4)nc32)cc1 | Antagonist | Active | Antagonist | K (Ovis aries [4]): 2.1 nM; K (Ovis aries [5]): 36 nM; K (Ovis aries [6]): 1.7 nM
 | O=C(O)CCC(=O)Nc1ccc(CCN2CN(c3ccccc3)C3(CCN(CCCC(=O)c4ccc(F)cc4)CC3)C2=O)cc1 |  |  | Active | 

Reference: ChEMBL document CHEMBL5042516, “Heterobivalent Ligand for the Adenosine A2A-Dopamine D2 Receptor Heteromer” (J Med Chem, 2022)
